Tests used:
[1] = biological target: T1, panel of 442 kinases (Homo sapiens, UniProt Q13523); format: binding; conditions: Compound Concentration 10 µM
T1 construct: purchased KINOMEscan
Excerpt: (§1) We assessed the selectivity of members of this scaffold using the KINOMEscan methodology across a near comprehensive panel of 442 kinases [[18,27]].

[2] = biological target: T2, panel of 442 kinases (Homo sapiens, UniProt O75385); format: binding; conditions: kinase ULK1; compound concentration 10 µM
T2 construct: purchased KINOMEscan
T2 sequence (O75385 1-1050): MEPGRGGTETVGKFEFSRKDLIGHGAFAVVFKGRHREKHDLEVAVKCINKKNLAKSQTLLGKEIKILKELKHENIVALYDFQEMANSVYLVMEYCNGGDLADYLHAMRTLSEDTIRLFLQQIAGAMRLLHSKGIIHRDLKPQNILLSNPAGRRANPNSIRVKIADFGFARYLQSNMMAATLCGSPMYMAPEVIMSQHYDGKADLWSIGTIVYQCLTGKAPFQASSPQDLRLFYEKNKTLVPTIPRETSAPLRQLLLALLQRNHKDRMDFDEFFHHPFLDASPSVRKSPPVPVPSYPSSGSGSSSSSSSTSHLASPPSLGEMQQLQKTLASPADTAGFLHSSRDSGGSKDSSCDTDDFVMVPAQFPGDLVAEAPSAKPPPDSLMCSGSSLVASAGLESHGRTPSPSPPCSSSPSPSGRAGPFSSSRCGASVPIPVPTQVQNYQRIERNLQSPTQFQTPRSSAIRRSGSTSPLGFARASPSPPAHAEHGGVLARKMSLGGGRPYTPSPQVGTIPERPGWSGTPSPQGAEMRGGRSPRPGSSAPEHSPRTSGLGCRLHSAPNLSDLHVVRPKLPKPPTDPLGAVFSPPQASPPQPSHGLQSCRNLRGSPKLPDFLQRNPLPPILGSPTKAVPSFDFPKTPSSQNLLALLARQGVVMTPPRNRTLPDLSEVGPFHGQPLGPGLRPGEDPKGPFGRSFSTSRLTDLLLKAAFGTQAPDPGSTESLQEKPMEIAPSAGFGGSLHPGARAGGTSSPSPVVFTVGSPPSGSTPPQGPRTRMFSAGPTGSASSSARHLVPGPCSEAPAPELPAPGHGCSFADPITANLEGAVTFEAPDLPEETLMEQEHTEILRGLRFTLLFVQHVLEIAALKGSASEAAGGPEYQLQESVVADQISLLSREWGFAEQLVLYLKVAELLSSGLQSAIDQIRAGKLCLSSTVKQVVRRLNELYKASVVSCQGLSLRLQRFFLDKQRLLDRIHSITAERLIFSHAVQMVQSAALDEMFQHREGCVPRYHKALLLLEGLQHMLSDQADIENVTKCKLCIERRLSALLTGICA
Excerpt: as §1

T1 sequence (Q13523 whole entry): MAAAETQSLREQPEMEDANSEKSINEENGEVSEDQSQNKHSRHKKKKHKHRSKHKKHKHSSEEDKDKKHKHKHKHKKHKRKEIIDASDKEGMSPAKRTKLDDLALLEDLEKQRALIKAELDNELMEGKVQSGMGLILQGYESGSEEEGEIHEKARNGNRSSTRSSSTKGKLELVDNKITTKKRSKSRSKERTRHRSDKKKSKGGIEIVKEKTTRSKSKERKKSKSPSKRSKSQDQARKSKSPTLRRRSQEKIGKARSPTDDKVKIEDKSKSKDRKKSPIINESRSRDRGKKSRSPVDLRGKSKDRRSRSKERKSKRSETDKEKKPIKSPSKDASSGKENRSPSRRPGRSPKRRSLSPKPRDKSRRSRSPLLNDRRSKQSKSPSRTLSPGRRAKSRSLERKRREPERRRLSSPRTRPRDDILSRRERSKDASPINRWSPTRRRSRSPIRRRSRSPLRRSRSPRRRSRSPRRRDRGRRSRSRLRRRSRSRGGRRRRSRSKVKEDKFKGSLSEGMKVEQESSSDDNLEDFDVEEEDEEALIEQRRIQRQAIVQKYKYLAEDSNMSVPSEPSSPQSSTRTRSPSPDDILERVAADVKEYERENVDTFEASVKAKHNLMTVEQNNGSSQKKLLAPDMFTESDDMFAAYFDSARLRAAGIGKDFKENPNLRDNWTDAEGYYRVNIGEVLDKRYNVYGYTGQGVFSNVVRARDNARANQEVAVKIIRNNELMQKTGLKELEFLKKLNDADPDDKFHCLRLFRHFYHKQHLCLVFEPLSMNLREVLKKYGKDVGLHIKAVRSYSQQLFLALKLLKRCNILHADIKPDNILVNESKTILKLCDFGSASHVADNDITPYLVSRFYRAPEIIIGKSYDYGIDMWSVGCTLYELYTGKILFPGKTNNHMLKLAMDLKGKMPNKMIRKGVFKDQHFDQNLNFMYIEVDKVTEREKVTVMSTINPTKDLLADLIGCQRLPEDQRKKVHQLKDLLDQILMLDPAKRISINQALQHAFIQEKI

Structure (SMILES) | KINOMEscan: PRP4 [1] | % Ctrl, ULK1 [2] [% Ctrl]
COc1cc(C(=O)N2CCC(N3CCN(C)CC3)CC2)ccc1Nc1ncc2c(n1)N(C1CCCC1)c1ccccc1C(=O)N2C [Compound 25, 11-cyclopentyl-2-((2-methoxy-4-(4-(4-methylpiperazin-1-yl)piperidine-1-carbonyl)phenyl)amino)-5-methyl-5H-benzo[e]pyrimido[5,4-b][1,4]diazepin-6(11H)-one] | 95 | 100
CCOc1cc(C(=O)N2CCC(N3CCN(C)CC3)CC2)ccc1Nc1ncc2c(n1)N(C1CCCC1)c1ccccc1C(=O)N2C [Compound 26] | 100 | 100
COc1cc(C(=O)N2CCC(N3CCN(C)CC3)CC2)ccc1Nc1ncc2c(n1)N1CCc3cccc(c31)C(=O)N2C [Compound 24] |  | 100
COc1cc(C(=O)N2CCC(N3CCN(C)CC3)CC2)ccc1Nc1ncc2c(n1)N(C)c1ccccc1C(=O)N2C [15 (LRRK2-IN-1)] | 93 | 80

— PMC3914206
